Experimental findings from ChEMBL document CHEMBL3046605, “Biocontrol of rice blast by the phenaminomethylacetic acid producer of Bacillus methylotrophicus strain BC79” (2013) are described below.

Common to all, as to format: functional
Assay [1] concerns Pyricularia oryzae. The assay can be described thus: Antifungal activity against Magnaporthe oryzae in rice seedlings assessed as rice blast disease incidence treated 24 hr prior to fungal inoculation at 15% measured at 6 days post-inoculation under green house conditions (reference value: 92.4 +/-5.6%).
Assay [2] has as its system Pyricularia oryzae. The assay can be described thus: Antifungal activity against Magnaporthe oryzae in rice seedlings assessed as rice blast disease incidence at 15% with formulation dose of 400 g/667 m'2 applied using knapsack sprayer measured under field trials (reference value: 43.7 +/-5.4%).
In assay [3] the test system is Pyricularia oryzae. In words: Antifungal activity against Magnaporthe oryzae in rice seedlings assessed as rice blast disease control efficacy at 15% with formulation dose of 200 g/667 m'2 applied using knapsack sprayer measured under field trials.
Assay [4] concerns Pyricularia oryzae. The assay can be described thus: Antifungal activity against Magnaporthe oryzae in rice seedlings assessed as rice blast disease incidence treated after fungal inoculation at 15% measured under green house conditions (reference value: 92.4 +/-5.6%).
Assay [5] has as its system Pyricularia oryzae. In words: Antifungal activity against Magnaporthe oryzae in rice seedlings assessed as rice blast disease control efficacy treated 24 hr prior to fungal inoculation at 15% measured at 6 days post-inoculation under green house conditions.
The subject of assay [6] is Pyricularia oryzae. In words: Antifungal activity against Magnaporthe oryzae in rice seedlings assessed as rice blast disease control efficacy treated after fungal inoculation at 15% measured under green house conditions.
For assay [7], the system named is Pyricularia oryzae. The assay can be described thus: Antifungal activity against Magnaporthe oryzae in rice seedlings assessed as rice blast disease control efficacy at 15% with formulation dose of 400 g/667 m'2 applied using knapsack sprayer measured under field trials.
Assay [8] concerns Pyricularia oryzae. The assay can be described thus: Antifungal activity against Magnaporthe oryzae in rice seedlings assessed as rice blast disease incidence at 15% with formulation dose of 200 g/667 m'2 applied using knapsack sprayer measured under field trials (reference value: 43.7 +/-5.4%).
The test system of assay [9] is Pyricularia oryzae. In words: Antifungal activity against Magnaporthe oryzae in rice seedlings assessed as rice yield at 15% with formulation dose of 200 g/667 m'2 applied using knapsack sprayer measured under field trials (reference value: 5940.6 +/-1.8 kg/hm'2).
For assay [10], the system named is Pyricularia oryzae. In words: Antifungal activity against Magnaporthe oryzae in rice seedlings assessed as rice yield at 15% with formulation dose of 400 g/667 m'2 applied using knapsack sprayer measured under field trials (reference value: 5940.6 +/-1.8 kg/hm'2).

On to `O=C(O)CCNc1ccccc1` [PHENAMINO METHYL ACETIC ACID], for which the Activity in assay [1] came to 62.5%; in assay [2], 18.3%; in assay [4], 60%; in assay [8], 18.3%; in assay [9], 6480.5 Kg/hr.m2; in assay [10] it was 6275.7 Kg/hr.m2. Also, the Efficacy in assay [3] stood at 68.3%; in assay [5], 74.3%; in assay [6], 73.6%; in assay [7], 75.5%.
